Source: patent publication US4962111A (priority 1989, dated 1990)
Converted amounts (≈) assume the structure as drawn. “And” between values parts separate entries of the source, which are not always exact repeats. Equal entries are not always repeated.

What was measured:
M. tb. 311 = assay: microbe, parasite or virus in culture; format: cell-based; details: Mycobacterium tuberculosis, 99% (2 log) inhibition, pH 5.8
[1] = tested on: Mycobacterium tuberculosis (laboratory mutant, nitrosoguanidine induced, resistant to pyrazinamide); format: cell-based; design: MIC: unit not given beside the values; details: for MIC: pH 5.8
[2] = tested on: Mycobacterium tuberculosis (laboratory mutant, nitrosoguanidine induced, resistant to pyrazinoic acid); format: cell-based; design: MIC: unit not given beside the values
[3] = tested on: Mycobacterial populations; details: cited from earlier work

Structure (SMILES) | MIC (M. tb. 311) [µg/mL] | MIC [1] | other results
C=CCOC(=O)c1cnccn1 [Allyl Pyrazinoate] | 6.25 (≈ 38.1 µM) | – | –
CCCOC(=O)c1cnccn1 [n-Propyl Pyrazinoate] | 6.25 (≈ 37.6 µM) | 12.5 and 6.25 | –
Cc1ccc(OC(=O)c2cnccn2)cc1 [p-Tolyl Pyrazinoate] | 12.5 (≈ 58.4 µM) | 12.5 and 25 | MIC ([2]; pH 5.8): 12.5 and 6.25
Nc1ccc(C(=O)O)c(O)c1 [p-aminosalicylic acid] | – | – | suppression of emergence of resistance ([3]; combination with streptomycin): can delay development of streptomycin resistance
NC(=O)c1cnccn1 [pyrazinamide] | > 200 | – | concentration required to achieve a 99% inhibition of growth [1]: > 200 µg/mL; concentration required to achieve a 99% inhibition of growth [2]: > 200 µg/mL; development of resistance ([3]; when used alone): resistance develops quickly
O=C(OCC(F)(F)F)c1cnccn1 [β, β, β-Trifluoroethyl Pyrazinoate] | 25 (≈ 121 µM) | – | –
